Reference: ChEMBL document CHEMBL5532665 (J Med Chem, 2024)
Active and inactive are the calls of the source. No cut-off for these calls is given here.

Assays:
Mus musculus [1] = test: Antinociceptive activity in Kunming mouse model assessed as latency of tail withdrawal at 132.2 nmol/kg, sc measured for 30 mins by tail-flick test relative to control; type: functional; conditions: 0.5 h
Mus musculus [2] = test: Antinociceptive activity in Kunming mouse model assessed as latency of tail withdrawal at 132.2 nmol/kg, sc measured for 60 mins by tail-flick test relative to control; type: functional; conditions: 1 h
Mus musculus [3] = test: Antinociceptive activity in Kunming mouse model assessed as latency of tail withdrawal at 132.2 nmol/kg, sc measured for 120 mins by tail-flick test relative to control; type: functional; conditions: 2 h
Mus musculus [4] = test: Antinociceptive activity in Kunming mouse model assessed as latency of tail withdrawal at 132.2 nmol/kg, sc measured for 10 mins by tail-flick test relative to control; type: functional
Mus musculus [5] = test: Antinociceptive activity in Kunming mouse model assessed as latency of tail withdrawal at 1362 nmol/kg, sc measured for 120 mins by tail-flick test relative to control; type: functional; conditions: 2 h
Mus musculus [6] = test: Antinociceptive activity in Kunming mouse model assessed as latency of tail withdrawal at 1362 nmol/kg, sc measured for 10 mins by tail-flick test relative to control; type: functional
Mus musculus [7] = test: Antinociceptive activity in Kunming mouse model assessed as latency of tail withdrawal at 1362 nmol/kg, sc measured for 60 mins by tail-flick test relative to control; type: functional; conditions: 1 h
Mus musculus [8] = test: Antinociceptive activity in Kunming mouse model assessed as latency of tail withdrawal at 1362 nmol/kg, sc measured for 30 mins by tail-flick test relative to control; type: functional; conditions: 0.5 h
[9] = biological target: Kappa-type opioid receptor (Homo sapiens, UniProt P41145); test: Agonist activity at human KOR expressed in CHO-K1 cells co-expressing G-alpha15 upto 100 uM by calcium mobilization assay; type: functional, cell-based
Sequence of Kappa-type opioid receptor (P41145 whole entry): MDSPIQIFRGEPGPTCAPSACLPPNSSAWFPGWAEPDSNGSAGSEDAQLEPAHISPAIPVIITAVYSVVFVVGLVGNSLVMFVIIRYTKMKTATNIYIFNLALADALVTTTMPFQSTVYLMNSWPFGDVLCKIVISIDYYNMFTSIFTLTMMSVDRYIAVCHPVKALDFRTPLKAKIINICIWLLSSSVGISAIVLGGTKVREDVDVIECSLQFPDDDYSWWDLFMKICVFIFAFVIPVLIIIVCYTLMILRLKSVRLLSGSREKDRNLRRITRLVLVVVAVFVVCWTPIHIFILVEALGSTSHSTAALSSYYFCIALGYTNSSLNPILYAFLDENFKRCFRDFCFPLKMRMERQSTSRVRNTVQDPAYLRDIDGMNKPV

Mus musculus [10] = test: Antinociceptive activity in Kunming mouse model assessed as latency of tail withdrawal at 144.4 nmol/kg, sc measured for 10 mins by tail-flick test relative to control; type: functional
Mus musculus [11] = test: Antinociceptive activity in Kunming mouse model assessed as latency of tail withdrawal at 144.4 nmol/kg, sc measured for 30 mins by tail-flick test relative to control; type: functional; conditions: 0.5 h
Mus musculus [12] = test: Antinociceptive activity in Kunming mouse model assessed as latency of tail withdrawal at 144.4 nmol/kg, sc measured for 120 mins by tail-flick test relative to control; type: functional; conditions: 2 h
Mus musculus [13] = test: Antinociceptive activity in Kunming mouse model assessed as latency of tail withdrawal at 144.4 nmol/kg, sc measured for 60 mins by tail-flick test relative to control; type: functional; conditions: 1 h
Mus musculus [14] = test: Antinociceptive activity in Kunming mouse model assessed as latency of tail withdrawal at 1404 nmol/kg, sc measured for 10 mins by tail-flick test relative to control; type: functional
Mus musculus [15] = test: Antinociceptive activity in Kunming mouse model assessed as latency of tail withdrawal at 1404 nmol/kg, sc measured for 30 mins by tail-flick test relative to control; type: functional; conditions: 0.5 h
Mus musculus [16] = test: Antinociceptive activity in Kunming mouse model assessed as latency of tail withdrawal at 1404 nmol/kg, sc measured for 60 mins by tail-flick test relative to control; type: functional; conditions: 1 h
Mus musculus [17] = test: Antinociceptive activity in Kunming mouse model assessed as latency of tail withdrawal at 1404 nmol/kg, sc measured for 120 mins by tail-flick test relative to control; type: functional; conditions: 2 h
Mus musculus [18] = test: Antinociceptive activity in Kunming mouse model assessed as latency of tail withdrawal at 136.2 nmol/kg, sc measured for 30 mins by tail-flick test relative to control; type: functional; conditions: 0.5 h
Mus musculus [19] = test: Antinociceptive activity in Kunming mouse model assessed as latency of tail withdrawal at 136.2 nmol/kg, sc measured for 10 mins by tail-flick test relative to control; type: functional
Mus musculus [20] = test: Antinociceptive activity in Kunming mouse model assessed as latency of tail withdrawal at 136.2 nmol/kg, sc measured for 60 mins by tail-flick test relative to control; type: functional; conditions: 1 h
Mus musculus [21] = test: Antinociceptive activity in Kunming mouse model assessed as latency of tail withdrawal at 136.2 nmol/kg, sc measured for 120 mins by tail-flick test relative to control; type: functional; conditions: 2 h

Work on `NC(=O)[C@H]1CCCN1C(=O)[C@@H]1CC(=O)NCCCC[C@@H](NC(=O)[C@@H](N)Cc2ccc(O)cc2)C(=O)NCC(=O)N[C@@H](Cc2ccc3ccccc3c2)C(=O)N1` yielded an MPE (Mus musculus [1]) of 94.8%, an MPE (Mus musculus [2]) of 76.9% and an MPE (Mus musculus [3]) of 26.8%. For the same compound, the MPE (Mus musculus [4]) was 78.1%.
`Cc1cc(O)cc(C)c1C[C@H](N)C(=O)N[C@@H]1CCCCNC(=O)C[C@@H](C(=O)N2CCC[C@@H]2C(N)=O)NC(=O)[C@H](Cc2ccccc2)NC(=O)CNC1=O` gave an MPE (Mus musculus [5]) of 44.5%, an MPE (Mus musculus [6]) of 75% and an MPE (Mus musculus [7]) of 73.4%. The MPE (Mus musculus [8]) was 90.5%.
With `NC(=O)[C@@H]1CCCN1C(=O)[C@H]1CC(=O)NCCCC[C@@H](NC(=O)[C@@H](N)Cc2ccc(O)cc2)C(=O)NCC(=O)N[C@@H](c2ccccc2)C(=O)N1` the Activity [9] was “inactive”, the MPE (Mus musculus [10]) was 44.4% and the MPE (Mus musculus [11]) was 94.4%. The MPE (Mus musculus [12]) was 44.4% and the MPE (Mus musculus [13]) was 87.5%.
In the case of `NC(=O)[C@H]1CCCN1C(=O)[C@@H]1CC(=O)NCCCC[C@@H](NC(=O)[C@@H](N)Cc2ccc(O)cc2)C(=O)NCC(=O)N[C@@H](CC2CCCCC2)C(=O)N1`, the MPE (Mus musculus [14]) is reported as 61.9%, the MPE (Mus musculus [15]) is reported as 92.4% and the MPE (Mus musculus [16]) is reported as 74.3%. The MPE (Mus musculus [17]) was 36.1%.
`CC1(C)NC(=O)[C@H](NC(=O)[C@@H](N)Cc2ccc(O)cc2)CCCCNC(=O)C[C@@H](C(=O)N2CCC[C@@H]2C(N)=O)NC(=O)[C@H](Cc2ccccc2)NC1=O` showed an MPE (Mus musculus [18]) of 91.1%, an MPE (Mus musculus [19]) of 48.9% and an MPE (Mus musculus [20]) of 69.3%. For the same compound, the MPE (Mus musculus [21]) was 46.1%.
